Molecules are shown by their SMILES.

In turn, `CCOC(=O)C(C)(CCC1=C(C)C(=O)c2ccccc2C1=O)C(=O)OCC` displayed a melting point of 96 °C.

Broadly, the melting point is the temperature of the solid-liquid transition.
